# Entries after “also recorded” stand apart in the source; their conditions may differ.
# Assays:
# [1] = test system: Methicillin-sensitive S. aureus (MTCC 737); assay: MIC, micro-dilution broth, MSSA; format: cell-based; conditions: MTCC 737; read-out: MIC MSSA
# Protocol: (§1) All test compounds were assayed in a micro-dilution broth format. Stock solutions were made by serially diluting the compounds using autoclaved millipore water or broth media. The antibacterial activity of the compounds was determined against methicillin-sensitive S. aureus (MSSA), methicillin-resistant S. aureus (MRSA), vancomycin-intermediate-resistant S. aureus (VISA), vancomycin-sensitive E. faecium (VSE) and vancomycin-resistant E. faecium (VRE). Bacteria, to be tested, were grown for about 10 h in the suitable media, MSSA, MRSA and VISA were grown in yeast-dextrose broth (about 1 g of beef extract, about 2 g of yeast extract, about 5 g of peptone and about 5 g of NaCl in about 1000 mL of sterile distilled water (pH-7)). For solid media, about 5% agar was used along with above mentioned composition. VSE and VRE were cultured in brain heart infusion broth (Himedia). The bacterial samples were freeze dried and stored at −80° C. About 5 μL of these stocks were added to about 3 mL of the nutrient broth and the culture was grown for about 6 h at about 37° C. prior to the experiments. This 6 h grown culture gives about 10^9 cfu/mL and this was determined by spread plating method. The 6 h grown culture was diluted to give effective cell concentration of about 10^5 cfu/mL which was then used for determining MIC. Compounds were serially diluted, in sterile water (2 fold dilution is employed) in a way that the working concentration was about 10 μM for MSSA, MRSA, and VSE while for VRE and VISA it was about 100 μM. About 50 μL of these serial dilutions were added to the wells of 96 well plate followed by the addition of about 150 μL of bacterial solution. The plates were then incubated at about 37° C., 150 rpm in the incubator and O.D at 600 nm was recorded at an interval of about 10 h and 24 h using TECAN (Infinite series, M200 pro) Plate Reader. Each concentration had triplicate values and the whole experiment was done at least twice and the MIC value was determined by taking the average of triplicate. O. D. values for each concentration and plotting it against concentration. The data was then subjected to sigmoidal fitting. From the curve the MIC value was determined, as the point in the curve where the O. D. was similar to that of control having no bacteria.
# [2] = test system: Methicillin-resistant S. aureus (ATCC 33591); assay: MIC, micro-dilution broth, MRSA; format: cell-based; conditions: ATCC 33591; read-out: MIC MRSA
# Protocol: as §1
# [3] = test system: Vancomycin intermediate resistant S. aureus; assay: MIC, micro-dilution broth, VISA; format: cell-based; conditions: read-out: MIC VISA
# Protocol: as §1
# [4] = test system: Vancomycin-sensitive E. faecium (ATCC 19634); assay: MIC, micro-dilution broth, VSE; format: cell-based; conditions: ATCC 19634; read-out: MIC VSE
# Protocol: as §1
# [5] = test system: Vancomycin-resistant E. faecium (VanA, ATCC 51559); assay: MIC, micro-dilution broth, VRE (VanA); format: cell-based; conditions: E. faecium ATCC 51559; read-out: MIC VRE (VanA)
# Protocol: as §1
# [6] = test system: Vancomycin-resistant E. faecalis (VanA, ATCC 51575); assay: MIC, micro-dilution broth, VRE (VanB); format: cell-based; conditions: E. faecalis ATCC 51575; read-out: MIC VRE (VanB)
# [7] = test system: methicillin-resistant S. epidermidis clinical isolate; assay: MIC, clinical isolate of methicillin-resistant S. epidermidis; format: cell-based; conditions: clinical isolate, methicillin-resistant
# [8] = test system: methicillin-resistant S. haemolyticus clinical isolate; assay: MIC, clinical isolate of methicillin-resistant S. haemolyticus; format: cell-based; conditions: clinical isolate, methicillin-resistant; read-out: MIC S. haemolyticus
# [9] = test system: methicillin-resistant S. aureus clinical isolate; assay: MIC, clinical isolate of methicillin-resistant S. aureus; format: cell-based; conditions: clinical isolate, methicillin-resistant
# Protocol: as §1
# VISA [10] = assay: Ex-vivo whole blood assay; format: cell-based, S. aureus; conditions: 3 h incubation in 90% human whole blood
# Protocol: Ex-vivo whole blood assay was performed to compare the abilities of these compounds to retain activity in complex media. To 30 μL of VISA in saline (0.9% NaCl; 10^6 CFU/mL) 10 μL of test compounds (vancomycin and compound 7) and 270 μL of fresh human whole blood were added and incubated, at 37° C. for about 3 h. After the incubation period, antibacterial activity was determined by finding the bacterial titer in the infected blood.
# VISA [11] = assay: In-vivo time dependent whole blood assay; design: species or system S. aureus; conditions: 12 mg/kg single i.v., CD-1 mice, VISA
# Protocol: The derivative 7 and vancomycin were administered in a single intravenous injection (0.2 mL saline) to normal pathogen-free, female CD-1 mice. Doses of 12 mg kg^−1 were administered to three mice per data point. At the specified time-points (0, 3, 6, 12, 24 and 48 h) mice were euthanized (using ether), blood samples were collected from the ocular puncture. 60 μL of VISA in saline (0.9% NaCl; 10^6 CFU/mL) was added to 540 μL of whole blood which was drawn from the mice and incubated at 37° C. for 3 h. After the incubation period, antibacterial activity was determined by finding the bacterial titer in the infected blood.
# [12] = test system: methicillin-resistant vancomycin-intermediate S. aureus (MR-VISA); assay: Time-kill assay; format: cell-based; conditions: 2 μM and 4 μM
# Protocol: The bactericidal activity was assessed by the kinetics or the rate at which it affects the killing action of the compound. Briefly methicillin-resistant vancomycin-intermediate S. aureus (MR-VISA) grown in Yeast-Dextrose broth. A starting inoculum of 1.6×10^8 CFU/ml was used as initial bacterial colony count. Vancomycin and compound 7 having final concentrations of 2 μM and 4 μM were inoculated with MR-VISA suspensions having starting inocula of 1.6×10^8 CFU/ml. Bacterial suspension containing specified concentrations of the compound along with negative control (which contains only 0.9% Saline) was incubated at 37° C. with shaking. Aliquots (20 μl) were removed from the cultures at different time intervals and were serially diluted 10-fold in 0.9% saline and plated onto sterile Yeast-Dextrose agar medium. The number of viable cells was determined by plating the 10-fold serial dilution of each sample onto Yeast-dextrose agar medium. Plates were then incubated for 24 h at 37° C., CFU was counted and the total bacterial log 10 CFU/ml was determined.
compound,measurement,setting,value
CN[C@H](CC(C)C)C(=O)N[C@H]1C(=O)N[C@@H](CC(N)=O)C(=O)N[C@H]2C(=O)N[C@H]3C(=O)N[C@H](C(=O)N[C@H](C(=O)O)c4cc(O)cc(O)c4-c4cc3ccc4O)[C@H](O)c3ccc(c(Cl)c3)Oc3cc2cc(c3O[C@@H]2O[C@H](CO)[C@@H](O)[C@H](O)[C@H]2O[C@H]2C[C@](C)(N)[C@H](O)[C@H](C)O2)Oc2ccc(cc2Cl)[C@H]1O [Vancomycin],MIC,[1],0.63 µM
same,MIC,[2],0.63 µM
same,MIC,[3],13.0 µM
same,MIC,[4],0.6 µM
same,MIC,[5],>700 µM
same,MIC,[6],250 µM
same,MIC S. epidermidis,[7],0.9 µM
same,MIC,[8],1.4 µM
same,MIC S. aureus,[9],0.7 µM
same,bactericidal activity in whole blood,VISA [10],slow killing
same,antibacterial activity of blood drawn at 3 h,VISA [11],did not show any activity; also recorded: nominal activity
same,antibacterial activity of blood drawn at 6 h,VISA [11],did not show any activity
same,killing kinetics,[12],relatively slow killing or bacteriostatic effect

# From patent US20160303184A1, “VANCOMYCIN-SUGAR CONJUGATES AND USES THEREOF” (JAWAHARLAL NEHRU CENTRE FOR ADVANCED SCIENTIFIC RESEARCH …, priority 2013, published 2016)
